Blank lines part the entries; values can stand above or below the compound they belong to.
Assays:
[1] = target: T1, Short transient receptor potential channel 4 (Mus musculus, UniProt Q9QUQ5); assay: Inhibition of mouse TRPC4 beta expressed in HEK293 cells co-expressing mu-opioid receptor assessed as reduction in DAMGO-induced membrane potential by FMP-2 dye based assay; type: cell-based
T1 sequence (Q9QUQ5 whole entry): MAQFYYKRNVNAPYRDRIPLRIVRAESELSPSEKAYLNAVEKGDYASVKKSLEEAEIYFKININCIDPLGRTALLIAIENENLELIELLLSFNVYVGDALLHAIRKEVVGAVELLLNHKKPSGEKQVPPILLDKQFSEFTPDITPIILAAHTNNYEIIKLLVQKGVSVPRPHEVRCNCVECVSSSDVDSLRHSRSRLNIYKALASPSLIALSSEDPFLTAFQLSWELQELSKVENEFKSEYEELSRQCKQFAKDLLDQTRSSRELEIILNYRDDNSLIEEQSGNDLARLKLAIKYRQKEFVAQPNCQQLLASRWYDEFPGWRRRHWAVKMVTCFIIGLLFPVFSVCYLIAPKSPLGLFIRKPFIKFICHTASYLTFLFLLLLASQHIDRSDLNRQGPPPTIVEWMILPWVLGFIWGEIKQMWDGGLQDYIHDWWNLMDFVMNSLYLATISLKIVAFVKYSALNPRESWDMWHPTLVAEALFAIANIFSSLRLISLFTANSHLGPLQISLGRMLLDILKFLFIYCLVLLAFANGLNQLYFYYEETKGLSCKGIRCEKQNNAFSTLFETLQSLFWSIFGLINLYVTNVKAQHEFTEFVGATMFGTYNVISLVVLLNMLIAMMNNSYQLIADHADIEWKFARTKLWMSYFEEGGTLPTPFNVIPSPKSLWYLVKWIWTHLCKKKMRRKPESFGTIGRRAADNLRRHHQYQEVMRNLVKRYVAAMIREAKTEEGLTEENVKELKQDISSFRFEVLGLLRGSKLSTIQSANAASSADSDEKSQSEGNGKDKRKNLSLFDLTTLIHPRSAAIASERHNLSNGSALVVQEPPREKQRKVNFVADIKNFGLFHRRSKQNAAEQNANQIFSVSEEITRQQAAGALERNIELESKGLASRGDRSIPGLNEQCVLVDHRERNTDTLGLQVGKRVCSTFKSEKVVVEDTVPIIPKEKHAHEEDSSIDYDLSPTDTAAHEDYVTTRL

[2] = target: T2, Short transient receptor potential channel 3 (Homo sapiens, UniProt Q13507); assay: Inhibition of human TRPC3 expressed in CHO cells assessed as reduction in OAG-induced calcium influx after 10 mins by fluo-4/AM dye based FLIPR assay; type: cell-based
T2 sequence (Q13507 whole entry): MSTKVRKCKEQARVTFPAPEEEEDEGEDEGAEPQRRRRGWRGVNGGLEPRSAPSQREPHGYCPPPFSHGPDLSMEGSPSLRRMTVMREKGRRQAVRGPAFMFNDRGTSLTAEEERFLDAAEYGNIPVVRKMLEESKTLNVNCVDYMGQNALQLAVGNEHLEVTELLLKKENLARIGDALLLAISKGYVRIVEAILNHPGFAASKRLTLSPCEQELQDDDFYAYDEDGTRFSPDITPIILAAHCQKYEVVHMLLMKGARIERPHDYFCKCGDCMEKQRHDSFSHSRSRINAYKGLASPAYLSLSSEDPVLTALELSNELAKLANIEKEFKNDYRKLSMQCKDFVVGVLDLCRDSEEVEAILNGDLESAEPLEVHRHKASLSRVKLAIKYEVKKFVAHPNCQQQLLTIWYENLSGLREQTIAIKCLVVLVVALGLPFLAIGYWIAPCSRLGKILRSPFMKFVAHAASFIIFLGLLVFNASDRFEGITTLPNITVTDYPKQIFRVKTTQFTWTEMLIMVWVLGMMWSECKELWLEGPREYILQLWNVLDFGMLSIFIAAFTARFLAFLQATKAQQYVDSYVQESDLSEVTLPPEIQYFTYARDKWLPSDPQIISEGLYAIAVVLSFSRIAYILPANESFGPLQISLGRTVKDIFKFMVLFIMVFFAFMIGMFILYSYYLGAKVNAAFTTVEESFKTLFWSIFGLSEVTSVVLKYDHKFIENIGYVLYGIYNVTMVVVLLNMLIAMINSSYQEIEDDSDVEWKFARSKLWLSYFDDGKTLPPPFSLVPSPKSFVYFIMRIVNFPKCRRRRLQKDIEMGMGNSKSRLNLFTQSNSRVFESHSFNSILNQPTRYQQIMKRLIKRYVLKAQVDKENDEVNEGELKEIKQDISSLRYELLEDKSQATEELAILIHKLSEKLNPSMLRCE

[3] = target: Short transient receptor potential channel 7 (Homo sapiens, UniProt Q9HCX4); assay: Inhibition of human TRPC7 expressed in HEK293 cells assessed as reduction in OAG-induced calcium influx after 10 mins by fluo-4/AM dye based FLIPR assay; type: cell-based
[4] = target: T1, Short transient receptor potential channel 4; assay: Inhibition of mouse TRPC4 by FLIPR assay
[5] = target: Short transient receptor potential channel 7 (Mus musculus, UniProt Q9WVC5); assay: Inhibition of YFP-tagged mouse TRPC7 expressed in thapsigargin treated HEK293 cells assessed as reduction in amix-induced calcium level by fluo-4 dye based fluorescence assay; type: cell-based
[6] = target: Transient receptor potential cation channel subfamily V member 1 (Rattus norvegicus, UniProt O35433); assay: Inhibition of CFP-tagged rat TRPV1 expressed in HEK293 cells assessed as reduction in calcium level by fluo-4 dye based fluorescence assay; type: cell-based
[7] = target: Transient receptor potential cation channel subfamily V member 4 (Mus musculus, UniProt Q9EPK8); assay: Inhibition of YFP-tagged mouse TRPV4 expressed in HEK293 cells assessed as reduction in calcium level by fluo-4 dye based fluorescence assay; type: cell-based
[8] = Selectivity ratio of IC50 for YFP-tagged human TRPC3 expressed in thapsigargin treated HEK293 cells to IC50 for mouse TRPC5 expressed in thapsigargin treated HEK293/TREx cells; type: cell-based

Transient receptor potential cation channel subfamily V member 4, sequence (Q9EPK8 whole entry): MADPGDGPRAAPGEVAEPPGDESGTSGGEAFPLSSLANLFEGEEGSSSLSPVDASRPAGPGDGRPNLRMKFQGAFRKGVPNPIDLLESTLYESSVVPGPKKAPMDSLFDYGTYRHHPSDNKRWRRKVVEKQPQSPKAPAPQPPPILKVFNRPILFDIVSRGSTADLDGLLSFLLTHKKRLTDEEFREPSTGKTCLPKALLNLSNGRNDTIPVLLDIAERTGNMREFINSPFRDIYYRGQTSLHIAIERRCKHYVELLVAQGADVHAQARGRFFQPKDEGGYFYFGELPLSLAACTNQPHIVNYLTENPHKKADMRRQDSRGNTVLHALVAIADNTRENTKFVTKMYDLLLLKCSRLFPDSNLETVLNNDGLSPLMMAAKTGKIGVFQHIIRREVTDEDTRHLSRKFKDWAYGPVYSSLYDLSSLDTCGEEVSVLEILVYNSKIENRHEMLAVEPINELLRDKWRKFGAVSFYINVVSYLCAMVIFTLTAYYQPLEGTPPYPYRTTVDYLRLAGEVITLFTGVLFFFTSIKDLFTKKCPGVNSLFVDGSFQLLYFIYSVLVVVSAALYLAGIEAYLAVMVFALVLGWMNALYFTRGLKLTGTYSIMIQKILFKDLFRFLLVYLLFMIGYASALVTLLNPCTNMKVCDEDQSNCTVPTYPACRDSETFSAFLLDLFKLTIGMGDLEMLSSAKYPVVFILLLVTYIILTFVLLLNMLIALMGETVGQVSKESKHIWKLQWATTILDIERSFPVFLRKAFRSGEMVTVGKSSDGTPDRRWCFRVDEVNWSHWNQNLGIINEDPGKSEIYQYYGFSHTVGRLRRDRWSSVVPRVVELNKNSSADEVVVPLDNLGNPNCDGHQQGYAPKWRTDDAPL
Short transient receptor potential channel 7 (Homo sapiens, UniProt Q9HCX4), sequence (Q9HCX4 whole entry): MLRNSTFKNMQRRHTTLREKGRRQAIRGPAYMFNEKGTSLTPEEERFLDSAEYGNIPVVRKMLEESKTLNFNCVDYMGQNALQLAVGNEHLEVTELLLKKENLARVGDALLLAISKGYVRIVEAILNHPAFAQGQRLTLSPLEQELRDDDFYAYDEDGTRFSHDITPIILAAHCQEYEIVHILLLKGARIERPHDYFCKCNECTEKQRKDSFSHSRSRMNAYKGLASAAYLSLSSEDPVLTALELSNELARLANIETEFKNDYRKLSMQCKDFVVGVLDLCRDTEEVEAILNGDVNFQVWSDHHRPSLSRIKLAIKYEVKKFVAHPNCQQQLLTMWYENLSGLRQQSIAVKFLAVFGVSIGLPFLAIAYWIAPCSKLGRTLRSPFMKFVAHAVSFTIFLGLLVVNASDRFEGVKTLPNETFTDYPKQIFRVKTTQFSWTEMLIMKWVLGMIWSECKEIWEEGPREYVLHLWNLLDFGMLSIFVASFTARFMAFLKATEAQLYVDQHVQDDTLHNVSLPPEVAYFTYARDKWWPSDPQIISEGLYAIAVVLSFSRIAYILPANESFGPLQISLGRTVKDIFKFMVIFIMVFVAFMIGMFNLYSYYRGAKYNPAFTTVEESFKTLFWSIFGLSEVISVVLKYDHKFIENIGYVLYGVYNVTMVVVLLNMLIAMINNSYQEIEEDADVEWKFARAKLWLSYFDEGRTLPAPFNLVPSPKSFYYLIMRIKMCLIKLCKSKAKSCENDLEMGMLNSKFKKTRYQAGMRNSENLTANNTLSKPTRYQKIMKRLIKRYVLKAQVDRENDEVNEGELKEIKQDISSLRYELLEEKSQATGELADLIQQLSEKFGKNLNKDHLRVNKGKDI
Short transient receptor potential channel 7 (Mus musculus, UniProt Q9WVC5), sequence (Q9WVC5 whole entry): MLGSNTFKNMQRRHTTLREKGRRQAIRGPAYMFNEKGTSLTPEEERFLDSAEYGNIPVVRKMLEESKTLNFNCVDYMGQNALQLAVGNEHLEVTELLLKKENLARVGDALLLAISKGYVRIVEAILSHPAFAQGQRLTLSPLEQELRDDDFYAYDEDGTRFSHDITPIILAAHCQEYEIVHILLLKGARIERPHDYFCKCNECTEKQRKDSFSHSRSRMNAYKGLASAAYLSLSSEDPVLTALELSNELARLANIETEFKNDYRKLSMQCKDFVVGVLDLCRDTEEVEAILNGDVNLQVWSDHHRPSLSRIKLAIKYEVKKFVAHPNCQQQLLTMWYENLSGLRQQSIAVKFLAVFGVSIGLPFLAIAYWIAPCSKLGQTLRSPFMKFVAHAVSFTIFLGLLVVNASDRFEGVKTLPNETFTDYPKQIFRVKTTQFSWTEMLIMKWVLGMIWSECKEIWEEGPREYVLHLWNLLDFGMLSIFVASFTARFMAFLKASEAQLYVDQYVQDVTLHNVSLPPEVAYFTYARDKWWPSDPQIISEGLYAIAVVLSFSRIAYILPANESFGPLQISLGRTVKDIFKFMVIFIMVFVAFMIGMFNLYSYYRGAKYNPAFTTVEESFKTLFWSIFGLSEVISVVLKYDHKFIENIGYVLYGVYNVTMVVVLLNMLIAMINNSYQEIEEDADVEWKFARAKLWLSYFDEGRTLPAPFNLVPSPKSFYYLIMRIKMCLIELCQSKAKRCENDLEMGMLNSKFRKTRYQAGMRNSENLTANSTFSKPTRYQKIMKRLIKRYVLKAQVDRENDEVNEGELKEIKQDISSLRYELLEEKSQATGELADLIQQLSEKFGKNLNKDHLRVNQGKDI
Transient receptor potential cation channel subfamily V member 1, sequence (O35433 whole entry): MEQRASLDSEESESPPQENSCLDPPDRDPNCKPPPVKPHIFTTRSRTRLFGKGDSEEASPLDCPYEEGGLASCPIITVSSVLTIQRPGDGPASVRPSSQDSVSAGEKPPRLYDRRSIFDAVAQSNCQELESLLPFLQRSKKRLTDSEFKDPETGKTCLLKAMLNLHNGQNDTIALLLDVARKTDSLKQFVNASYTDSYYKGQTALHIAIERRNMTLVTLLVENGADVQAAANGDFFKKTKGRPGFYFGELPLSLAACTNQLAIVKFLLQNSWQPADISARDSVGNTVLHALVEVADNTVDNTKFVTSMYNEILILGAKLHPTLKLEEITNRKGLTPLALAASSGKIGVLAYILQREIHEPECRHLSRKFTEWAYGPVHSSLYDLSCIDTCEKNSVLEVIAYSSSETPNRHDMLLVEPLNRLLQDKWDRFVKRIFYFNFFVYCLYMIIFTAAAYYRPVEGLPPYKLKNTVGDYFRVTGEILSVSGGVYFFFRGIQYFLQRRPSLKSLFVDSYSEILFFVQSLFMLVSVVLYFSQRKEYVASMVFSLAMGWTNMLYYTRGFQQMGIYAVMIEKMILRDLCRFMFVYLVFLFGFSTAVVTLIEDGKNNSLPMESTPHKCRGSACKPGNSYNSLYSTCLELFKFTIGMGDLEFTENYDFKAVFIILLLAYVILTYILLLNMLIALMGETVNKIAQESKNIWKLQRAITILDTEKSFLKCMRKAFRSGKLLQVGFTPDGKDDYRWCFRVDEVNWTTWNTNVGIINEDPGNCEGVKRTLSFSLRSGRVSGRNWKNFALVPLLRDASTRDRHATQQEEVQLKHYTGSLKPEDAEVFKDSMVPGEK

IC50 [1]: 5.5 µM
SMILES: c1ccc2[nH]c(N3CCCC3)nc2c1

IC50 [1]: 11 µM
SMILES: c1ccc2[nH]c(N3CCCCC3)nc2c1

IC50 [1]: 5.2 µM
SMILES: CC1CCN(c2nc3ccccc3[nH]2)CC1

Second part, the compound before the results:

SMILES: c1ccc2[nH]c(NC34CC5CC(CC(C5)C3)C4)nc2c1
IC50 [1]: 10.2 µM

SMILES: CC1CCN(c2nc3cc(Cl)ccc3[nH]2)CC1
IC50 [1]: 4.1 µM

SMILES: N#Cc1ccc(O[C@@H]2c3ccccc3C[C@H]2N2CCC[C@@H](N)C2)c(Cl)c1
IC50 [2]: 0.282 µM | IC50 [3]: 0.226 µM | IC50 [4]: > 10 µM

SMILES: CC1CCCCN1c1nc2ccccc2[nH]1 (stereo not drawn)
IC50 [1]: 4.3 µM

SMILES: Clc1ccc(Cn2c(CN3CCCC3)nc3ccccc32)cc1 [CLEMIZOLE]
IC50 [5]: 26.5 µM | IC50 [6]: > 20 µM | IC50 [7]: > 20 µM | Ratio IC50 [8]: 10
